Here are results for 12 molecules from ChEMBL document CHEMBL5096160, “Targeting SHP2 as a therapeutic strategy for inflammatory diseases” (Eur J Med Chem, 2021).

Values after ≈ are worked out from the molar mass of the structure shown.

One assay deals with BaF3. Kind of assay: Cytotoxicity against mouse BaF3 cells assessed as inhibition of cell proliferation incubated for 48 hrs by MTT assay. The class given is functional, cell-based. To be noted: BaF3, 48 h. On the technique in general: Formazan colour is commonly taken as a measure of viable cells.
The target in assay [1] is T1, Tyrosine-protein phosphatase non-receptor type 11 (Homo sapiens, UniProt Q06124).
T1 sequence (Q06124 whole entry): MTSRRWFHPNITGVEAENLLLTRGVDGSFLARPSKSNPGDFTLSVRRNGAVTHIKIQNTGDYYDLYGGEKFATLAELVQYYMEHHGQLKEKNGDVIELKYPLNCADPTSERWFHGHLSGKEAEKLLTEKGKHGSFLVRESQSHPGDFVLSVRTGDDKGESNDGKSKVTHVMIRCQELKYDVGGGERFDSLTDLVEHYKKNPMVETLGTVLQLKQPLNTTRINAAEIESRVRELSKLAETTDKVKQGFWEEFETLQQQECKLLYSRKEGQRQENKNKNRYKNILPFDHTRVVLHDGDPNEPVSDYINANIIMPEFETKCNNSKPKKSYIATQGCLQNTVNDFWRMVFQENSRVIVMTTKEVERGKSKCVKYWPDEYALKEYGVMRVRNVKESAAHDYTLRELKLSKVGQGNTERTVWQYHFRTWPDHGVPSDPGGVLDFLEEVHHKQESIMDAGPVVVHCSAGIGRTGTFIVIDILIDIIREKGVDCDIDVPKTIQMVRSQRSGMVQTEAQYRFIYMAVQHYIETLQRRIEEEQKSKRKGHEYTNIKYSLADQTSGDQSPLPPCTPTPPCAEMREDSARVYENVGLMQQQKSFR
Kind of assay: Inhibition of SHP2 (unknown origin) using EFpYAEVGRSPPDPAK incubated for 0.5 hrs by malachite green reagent based assay.

In assay [2] the target is Tyrosine-protein phosphatase non-receptor type 6 (Homo sapiens) (UniProt P29350). Put plainly: Inhibition of SHP1 (unknown origin) using EFpYAEVGRSPPDPAK incubated for 0.5 hrs by malachite green reagent assay.
For assay [3], the target named is T1, Tyrosine-protein phosphatase non-receptor type 11. Put plainly: Inhibition of human recombinant SHP2 expressed in Escherichia coli using p-nitrophenyl phosphate as substrate preincubated for 2 mins followed by substrate addition by microplate spectrophotometer analysis.
Assay [4] shares this target. Put plainly: Inhibition of GST-tagged SHP2 (unknown origin) using 8-difluoro-4-methylumbelliferyl phosphate as a substrate measured after 30 mins by fluorescence based analysis.
Assay [5] has the same target. Put plainly: Inhibition of human SHP2 catalytic domain expressed in Escherichia coli using p-nitrophenyl phosphate as substrate by spectrophotometric method.
Assay [6] concerns the target Tyrosine-protein phosphatase non-receptor type 11 (Mus musculus, UniProt P35235). Put plainly: Inhibition of SHP2 in mouse EMT6 cells harboring SOS1 mutation. Type of assay: cell-based.
The target in assay [7] is T2, Tyrosine-protein phosphatase non-receptor type 11 (Homo sapiens) (UniProt Q06124).
T2 sequence (whole entry): T1 sequence (Q06124 whole entry)
Kind of assay: Inhibition of recombinant SHP2 (unknown origin).

For the next assay, the system named is A549. Kind of assay: Antiproliferative activity against human A549 cells assessed as inhibition of cell growth measured after 72 hrs by CCK-8 assay. The class given is functional, cell-based. To be noted: A549, 72 h.
Assay [8] addresses T1, Tyrosine-protein phosphatase non-receptor type 11. Kind of assay: Inhibition of recombinant human GST-tagged SHP2 expressed in Escherichia coli BL21 incubated for 30 mins by DiFMUP fluorescence assay.
The nature of assay [9]: Cytotoxicity against human LN-444 cells assessed as reduction in cell viability incubated for 72 hrs by WST-1 assay. The class given is functional, cell-based. To be noted: LN-444, 72 h.
Another assay concerns Capan-2. Put plainly: Cytotoxicity against human Capan-2 cells harbouring K-ras mutant assessed as reduction in cell viability incubated for 144 hrs. To be noted: Capan-2, 144 h. The class given is functional, cell-based.
Assay [10] deals with T1, Tyrosine-protein phosphatase non-receptor type 11. Put plainly: Inhibition of N-terminal hexaHis-tagged catalytic domain of human SHP2 (248 to 527 residues) expressed as Escherichia coli Rosetta (DE3) using DiFMUP as substrate preincubated for 1 hr followed by substrate addition by fluorescence based analysis.
Assay [11] has the same target. Kind of assay: Inhibition of N-terminal 6His-tagged full-length H2N-VE(pY)LDLDLD(PEG8)RVD(pY)VVVDQQ-amide-activated SHP2 (247 to 529 residues) (unknown origin) expressed in Escherichia coli BL21 (DE3) using DiFMUP as substrate preincubated for 10 to 30 mins with activating peptide prior to compound addition for 30 mins followed by substrate addition and measured for 6 mins by fluorescence based assay.

For assay [12], the target named is T2, Tyrosine-protein phosphatase non-receptor type 11 (Homo sapiens). Kind of assay: Inhibition of SHP2 in human LS180 cells. The class given is cell-based.
Another assay has as its system SW1463. Put plainly: Cytotoxicity against human SW1463 cells assessed as inhibition of cell growth incubated for 120 hrs by MTT assay. To be noted: SW1463, 120 h. Type of assay: functional, cell-based.

Sequence of Tyrosine-protein phosphatase non-receptor type 11 (Mus musculus, UniProt P35235) (P35235 2-593 limits assumed, change not shown): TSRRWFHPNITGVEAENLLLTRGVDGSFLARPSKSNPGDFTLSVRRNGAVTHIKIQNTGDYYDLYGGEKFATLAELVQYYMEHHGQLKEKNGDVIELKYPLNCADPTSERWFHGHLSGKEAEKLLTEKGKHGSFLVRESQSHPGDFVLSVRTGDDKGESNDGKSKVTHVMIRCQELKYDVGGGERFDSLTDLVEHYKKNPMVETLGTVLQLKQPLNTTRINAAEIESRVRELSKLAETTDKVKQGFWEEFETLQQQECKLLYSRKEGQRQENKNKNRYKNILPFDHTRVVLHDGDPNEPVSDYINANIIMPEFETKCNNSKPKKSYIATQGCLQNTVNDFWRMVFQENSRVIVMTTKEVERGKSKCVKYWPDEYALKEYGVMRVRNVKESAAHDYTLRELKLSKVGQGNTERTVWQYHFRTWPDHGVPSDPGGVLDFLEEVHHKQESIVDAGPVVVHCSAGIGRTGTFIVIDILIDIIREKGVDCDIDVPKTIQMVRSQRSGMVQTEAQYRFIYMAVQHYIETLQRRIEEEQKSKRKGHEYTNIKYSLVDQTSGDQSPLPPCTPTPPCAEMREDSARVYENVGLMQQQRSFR
Sequence of Tyrosine-protein phosphatase non-receptor type 6 (Homo sapiens) (P29350 whole entry): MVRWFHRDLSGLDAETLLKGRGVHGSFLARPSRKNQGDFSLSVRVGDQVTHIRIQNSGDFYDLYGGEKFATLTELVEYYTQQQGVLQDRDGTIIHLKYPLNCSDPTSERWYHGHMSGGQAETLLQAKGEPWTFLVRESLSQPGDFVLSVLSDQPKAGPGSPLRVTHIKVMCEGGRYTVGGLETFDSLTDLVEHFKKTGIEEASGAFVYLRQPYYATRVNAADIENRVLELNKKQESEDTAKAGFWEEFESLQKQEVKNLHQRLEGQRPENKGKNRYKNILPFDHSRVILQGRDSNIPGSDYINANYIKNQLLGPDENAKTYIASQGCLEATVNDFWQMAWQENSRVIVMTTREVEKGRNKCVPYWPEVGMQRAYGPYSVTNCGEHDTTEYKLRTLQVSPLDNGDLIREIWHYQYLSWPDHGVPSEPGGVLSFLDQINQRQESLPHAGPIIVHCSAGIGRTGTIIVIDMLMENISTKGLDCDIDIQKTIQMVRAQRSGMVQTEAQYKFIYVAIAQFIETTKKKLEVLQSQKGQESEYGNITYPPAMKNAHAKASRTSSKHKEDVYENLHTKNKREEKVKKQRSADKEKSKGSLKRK

Regarding `NCC1CCN(c2ncc(-c3cccc(Cl)c3Cl)cc2CO)CC1`, the IC50 (usually the midpoint of a concentration-inhibition curve) with BaF3 amounted to 2350 nM; in assay [1], 1360 nM. This molecule had an IC5 in assay [2] of 100 µM.

In the case of `CCOC(=O)c1sc(-c2ccc(OC)cc2)nc1COc1ccc(Cl)cc1`, in assay [3], the IC50 came to 990 nM.

For `C/C(=C\[C@H](O)C[C@@H](C)[C@H]1CC[C@@]2(C)[C@@H]3CC[C@H]4C(C)(C)[C@@H](O)CC[C@@]45C[C@@]35CC[C@]12C)C(=O)O`, the IC50 in assay [4] turned out to be 19000 nM.

As for `CCOC(=O)c1sc(-c2ccc([N+](=O)[O-])cc2)nc1COc1ccc(Cl)cc1`, the IC50 in [3] amounted to 4300 nM.

On to `CCCCCCCCCCCC(=O)C1=C2C3=COC(C)=CC3=CC(=O)[C@]2(C)OC1=O`, for which, in assay [5], half-maximal inhibition (IC50) was put at 800 nM.

Take `Cc1nc(N2CCC3(CC2)CO[C@@H](C)[C@H]3N)c(CO)nc1-c1cccc(Cl)c1Cl`: in [6], the IC50 was found to be 7 nM.

`O=C(O)c1ccccc1-c1ccc(/C=c2/sc3nc4cc(Br)cnc4n3c2=O)o1`: the IC5 in [7] came out at 1.1 µM.

Turning to `CC(=O)O[C@H]1CC[C@]2(C)c3c(O)c4c(c(O)c3C(=O)CC2C1(C)C)C[C@H](C)O4` (some centres undefined), the IC50 in the assay on A549 amounted to 10800 nM; in [8], 8790 nM.

Turning to `CC1(N)CCN(c2cnc(-c3cccc(Cl)c3Cl)c(N)n2)CC1`, the IC50 in the assay with BaF3 is 19900 nM; in assay [9] it was 38000 nM; in the assay with Capan-2, 15700 nM.

For the molecule `O=C1/C(=N/Nc2ccc(S(=O)(=O)O)cc2)C(c2ccc([N+](=O)[O-])cc2)=NN1c1ccc([N+](=O)[O-])cc1`, the IC50 in assay [10] worked out at 71 nM.

As for `N[C@@H]1COCC12CCN(c1cnc3c(Sc4cccc(Cl)c4Cl)n[nH]c3n1)CC2`, the IC50 in assay [11] amounted to 2.1 nM; with SW1463 it was 590 nM. This molecule yielded an MIC in assay [12] of 10 µM (≈ 4.51 µg/mL).

For `CCCCCCCCCC[C@@H](C)C(=O)C1=C2C3=COC(C)=CC3=CC(=O)[C@]2(C)OC1=O`, the IC50 in assay [5] turned out to be 700 nM.
